PubChem BioAssay (NCI)
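These data come from cells grown in 96-well plates and exposed to compound for 48 hours at five concentrations. TGI is the concentration that stops growth completely.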

How the values were obtained:
Assay in all cases: DTP human tumour cell line panel, 48 h
KM12 colon = tested on: KM12 colon
NCI/ADR-RES ovarian = tested on: NCI/ADR-RES ovarian
U251 CNS = tested on: U251 CNS
BT-549 breast = tested on: BT-549 breast
SNB-75 CNS = tested on: SNB-75 CNS
TK-10 renal = tested on: TK-10 renal
HS 578T breast = tested on: HS 578T breast
SK-OV-3 ovarian = tested on: SK-OV-3 ovarian
SN12C renal = tested on: SN12C renal
T-47D breast = tested on: T-47D breast
A549 NSCLC = tested on: A549 NSCLC
SR leukemia = tested on: SR leukemia
HOP-92 NSCLC = tested on: HOP-92 NSCLC
MCF7 breast = tested on: MCF7 breast
RPMI-8226 leukemia = tested on: RPMI-8226 leukemia
OVCAR-4 ovarian = tested on: OVCAR-4 ovarian
NCI-H23 lung = tested on: NCI-H23 lung
MDA-N = tested on: MDA-N
SK-MEL-28 melanoma = tested on: SK-MEL-28 melanoma
M14 melanoma = tested on: M14 melanoma
MALME-3M melanoma = tested on: MALME-3M melanoma
NCI-H226 lung = tested on: NCI-H226 lung
DU-145 prostate = tested on: DU-145 prostate
OVCAR-8 ovarian = tested on: OVCAR-8 ovarian
A498 renal = tested on: A498 renal
EKVX NSCLC = tested on: EKVX NSCLC
SW-620 colon = tested on: SW-620 colon
UACC-62 melanoma = tested on: UACC-62 melanoma
IGROV1 ovarian = tested on: IGROV1 ovarian
CAKI-1 renal = tested on: CAKI-1 renal
NCI-H460 lung = tested on: NCI-H460 lung
UACC-257 melanoma = tested on: UACC-257 melanoma
HOP-62 NSCLC = tested on: HOP-62 NSCLC
HCT-15 colon = tested on: HCT-15 colon
HL-60(TB) leukemia = tested on: HL-60(TB) leukemia
SF-268 CNS = tested on: SF-268 CNS
MDA-MB-231 breast = tested on: MDA-MB-231 breast
786-0 renal = tested on: 786-0 renal
LOX IMVI melanoma = tested on: LOX IMVI melanoma
COLO 205 colon = tested on: COLO 205 colon
CCRF-CEM leukemia = tested on: CCRF-CEM leukemia
SK-MEL-5 melanoma = tested on: SK-MEL-5 melanoma
MOLT-4 leukemia = tested on: MOLT-4 leukemia
SF-539 CNS = tested on: SF-539 CNS
HCC-2998 colon = tested on: HCC-2998 colon
UO-31 renal = tested on: UO-31 renal
K-562 leukemia = tested on: K-562 leukemia
HCT-116 colon = tested on: HCT-116 colon
SNB-19 CNS = tested on: SNB-19 CNS
RXF 393 renal = tested on: RXF 393 renal
OVCAR-5 ovarian = tested on: OVCAR-5 ovarian
MDA-MB-435 = tested on: MDA-MB-435
OVCAR-3 ovarian = tested on: OVCAR-3 ovarian
PC-3 prostate = tested on: PC-3 prostate
SF-295 CNS = tested on: SF-295 CNS
ACHN renal = tested on: ACHN renal
NCI-H522 lung = tested on: NCI-H522 lung
HT29 colon = tested on: HT29 colon
SK-MEL-2 melanoma = tested on: SK-MEL-2 melanoma

Compound `COc1ccc(/C(C)=N/NC(=O)c2ccncc2)c(OC)c1` has a TGI (KM12 colon) of over 10 µM, a TGI (NCI/ADR-RES ovarian) of over 10 µM and a TGI (U251 CNS) of over 10 µM. The TGI (BT-549 breast) was over 10 µM, the TGI (SNB-75 CNS) was over 10 µM and the TGI (TK-10 renal) was over 10 µM. For the same compound, the TGI (HS 578T breast) was over 10 µM, the TGI (SK-OV-3 ovarian) was over 10 µM and the TGI (SN12C renal) was over 10 µM. The TGI (T-47D breast) was over 10 µM, the TGI (A549 NSCLC) was over 10 µM and the TGI (SR leukemia) was over 10 µM. The TGI (HOP-92 NSCLC) was over 10 µM, the TGI (MCF7 breast) was over 10 µM and the TGI (RPMI-8226 leukemia) was over 10 µM. The TGI (OVCAR-4 ovarian) was over 10 µM, the TGI (NCI-H23 lung) was over 10 µM and the TGI (MDA-N) was over 10 µM. The TGI (SK-MEL-28 melanoma) was over 10 µM, the TGI (M14 melanoma) was over 10 µM and the TGI (MALME-3M melanoma) was over 10 µM. The TGI (NCI-H226 lung) was over 10 µM, the TGI (DU-145 prostate) was over 10 µM and the TGI (OVCAR-8 ovarian) was over 10 µM. The TGI (A498 renal) was over 10 µM, the TGI (EKVX NSCLC) was over 10 µM and the TGI (SW-620 colon) was over 10 µM. For the same compound, the TGI (UACC-62 melanoma) was over 10 µM, the TGI (IGROV1 ovarian) was over 10 µM and the TGI (CAKI-1 renal) was over 10 µM. The TGI (NCI-H460 lung) was over 10 µM, the TGI (UACC-257 melanoma) was over 10 µM and the TGI (HOP-62 NSCLC) was over 10 µM. It also gave a TGI (HCT-15 colon) of over 10 µM, a TGI (HL-60(TB) leukemia) of over 10 µM and a TGI (SF-268 CNS) of over 10 µM. The TGI (MDA-MB-231 breast) was over 10 µM, the TGI (786-0 renal) was over 10 µM and the TGI (LOX IMVI melanoma) was over 10 µM. The TGI (COLO 205 colon) was over 10 µM, the TGI (CCRF-CEM leukemia) was over 10 µM and the TGI (SK-MEL-5 melanoma) was over 10 µM. For the same compound, the TGI (MOLT-4 leukemia) was over 10 µM, the TGI (SF-539 CNS) was over 10 µM and the TGI (HCC-2998 colon) was over 10 µM. The TGI (UO-31 renal) was over 10 µM and the TGI (K-562 leukemia) was over 10 µM.

`CC1(C)[C@@H]2CC[C@]1(C)[C@H](OC(=O)/C=C/c1ccccc1)C2` gave a TGI (KM12 colon) of 42.6 µM, a TGI (HCT-116 colon) of 38.1 µM and a TGI (NCI/ADR-RES ovarian) of 37.1 µM. The TGI (U251 CNS) was 32.4 µM, the TGI (BT-549 breast) was 48 µM and the TGI (SNB-75 CNS) was 33.3 µM. For the same compound, the TGI (TK-10 renal) was over 100 µM, the TGI (HS 578T breast) was 41.7 µM and the TGI (SK-OV-3 ovarian) was 84.2 µM. The TGI (SN12C renal) was 34.3 µM, the TGI (T-47D breast) was 34.2 µM and the TGI (A549 NSCLC) was over 100 µM. The TGI (MCF7 breast) was 30.8 µM, the TGI (OVCAR-4 ovarian) was 55.1 µM and the TGI (SNB-19 CNS) was 36.3 µM. It also gave a TGI (RXF 393 renal) of 33.2 µM, a TGI (NCI-H23 lung) of 50.8 µM and a TGI (MDA-N) of 92.6 µM. It also gave a TGI (SK-MEL-28 melanoma) of 50.4 µM, a TGI (M14 melanoma) of 70.8 µM and a TGI (MALME-3M melanoma) of 38.5 µM. For the same compound, the TGI (OVCAR-5 ovarian) was 39.1 µM, the TGI (NCI-H226 lung) was 36.4 µM and the TGI (DU-145 prostate) was 47.9 µM. It also gave a TGI (OVCAR-8 ovarian) of 36.5 µM, a TGI (A498 renal) of 32.3 µM and a TGI (EKVX NSCLC) of 41.8 µM. The TGI (MDA-MB-435) was 77.7 µM, the TGI (SW-620 colon) was 30.6 µM and the TGI (UACC-62 melanoma) was 57.5 µM. The TGI (IGROV1 ovarian) was 51.8 µM, the TGI (OVCAR-3 ovarian) was 19.6 µM and the TGI (CAKI-1 renal) was 38 µM. For the same compound, the TGI (NCI-H460 lung) was over 100 µM, the TGI (PC-3 prostate) was 56.4 µM and the TGI (UACC-257 melanoma) was 63.3 µM. It also gave a TGI (SF-295 CNS) of 36.3 µM, a TGI (HOP-62 NSCLC) of 63.1 µM and a TGI (HCT-15 colon) of 33.4 µM. The TGI (HL-60(TB) leukemia) was 40.5 µM, the TGI (SF-268 CNS) was 33.9 µM and the TGI (MDA-MB-231 breast) was 35 µM. The TGI (ACHN renal) was 31.9 µM, the TGI (NCI-H522 lung) was 28.6 µM and the TGI (786-0 renal) was 32.3 µM. It also gave a TGI (LOX IMVI melanoma) of 37.1 µM, a TGI (COLO 205 colon) of 31 µM and a TGI (CCRF-CEM leukemia) of 41.6 µM. It also gave a TGI (SK-MEL-5 melanoma) of 30.5 µM, a TGI (HT29 colon) of 33.7 µM and a TGI (SK-MEL-2 melanoma) of 35 µM. For the same compound, the TGI (SF-539 CNS) was 35.9 µM, the TGI (HCC-2998 colon) was 30.7 µM and the TGI (UO-31 renal) was 34 µM. The TGI (K-562 leukemia) was 38.1 µM.

For `CCOP(=O)(OCC)/C(C#N)=C/c1cccn1C(C)C`, the TGI (KM12 colon) was over 100 µM, the TGI (HCT-116 colon) was over 100 µM and the TGI (NCI/ADR-RES ovarian) was over 100 µM. The TGI (U251 CNS) was over 100 µM, the TGI (BT-549 breast) was over 100 µM and the TGI (SNB-75 CNS) was over 100 µM. The TGI (TK-10 renal) was over 100 µM, the TGI (SK-OV-3 ovarian) was over 100 µM and the TGI (SN12C renal) was over 100 µM. The TGI (T-47D breast) was over 100 µM, the TGI (A549 NSCLC) was over 100 µM and the TGI (SR leukemia) was over 100 µM. It also gave a TGI (HOP-92 NSCLC) of over 100 µM, a TGI (SNB-19 CNS) of over 100 µM and a TGI (RXF 393 renal) of over 100 µM. The TGI (NCI-H23 lung) was over 100 µM, the TGI (MDA-N) was over 100 µM and the TGI (SK-MEL-28 melanoma) was over 100 µM. The TGI (M14 melanoma) was over 100 µM, the TGI (MALME-3M melanoma) was over 100 µM and the TGI (OVCAR-5 ovarian) was over 100 µM. The TGI (NCI-H226 lung) was over 100 µM, the TGI (DU-145 prostate) was over 100 µM and the TGI (OVCAR-8 ovarian) was over 100 µM. It also gave a TGI (A498 renal) of over 100 µM, a TGI (EKVX NSCLC) of over 100 µM and a TGI (MDA-MB-435) of over 100 µM. For the same compound, the TGI (SW-620 colon) was over 100 µM, the TGI (UACC-62 melanoma) was over 100 µM and the TGI (IGROV1 ovarian) was over 100 µM. For the same compound, the TGI (OVCAR-3 ovarian) was over 100 µM, the TGI (CAKI-1 renal) was over 100 µM and the TGI (NCI-H460 lung) was over 100 µM. For the same compound, the TGI (PC-3 prostate) was over 100 µM, the TGI (UACC-257 melanoma) was over 100 µM and the TGI (SF-295 CNS) was over 100 µM. It also gave a TGI (HOP-62 NSCLC) of over 100 µM, a TGI (HCT-15 colon) of over 100 µM and a TGI (SF-268 CNS) of over 100 µM. For the same compound, the TGI (MDA-MB-231 breast) was over 100 µM, the TGI (ACHN renal) was over 100 µM and the TGI (NCI-H522 lung) was over 100 µM. It also gave a TGI (786-0 renal) of over 100 µM, a TGI (LOX IMVI melanoma) of over 100 µM and a TGI (COLO 205 colon) of over 100 µM. The TGI (SK-MEL-5 melanoma) was over 100 µM, the TGI (HT29 colon) was over 100 µM and the TGI (MOLT-4 leukemia) was over 100 µM. For the same compound, the TGI (SK-MEL-2 melanoma) was over 100 µM, the TGI (SF-539 CNS) was over 100 µM and the TGI (HCC-2998 colon) was over 100 µM. It also gave a TGI (UO-31 renal) of over 100 µM and a TGI (K-562 leukemia) of over 100 µM.
